From patent publication US6670363B1, “Azole compounds as therapeutic agents for fungal infections” (Ranbaxy Laboratories Limited, priority 2000, dated 2003)
Converted amounts (≈) assume the structure as drawn.

How the values were obtained:
Type in all cases: cell-based
[1] = system: Histoplasma capsulatum
[2] = system: Cryptococcus neoformans; assay: In vitro MIC, NCCLS M27A, Cryptococcus neoformans; parameters: MIC, C. neoformans I: unit not given beside the values; MIC, C. neoformans M 106: unit not given here; conditions: for MIC, C. neoformans I: C. neoformans strain I; for MIC, C. neoformans M 106: C. neoformans strain M 106
[3] = system: A. fumigatus s 1008; assay: In vitro MIC, NCCLS M38P broth method (RPMI 1640/MOPS pH7), Aspergillus fumigatus; conditions: A. fumigatus strain 1008
[4] = system: Candida; assay: In vitro MIC, NCCLS M27A, Candida species; parameters: MIC, Candida albicans 1.549 / MIC, Candida albicans Y-01-19 / MIC, C. krusei 766-1 / MIC, C. krusei Q. C / MIC, Candida tropicalis ATCC / MIC, C. glabrata 90030: unit not given beside the values; MIC, Candida albicans A 26 / MIC, C. parapsilosis Q. C.: unit not given here; conditions: for MIC, C. glabrata 90030: C. glabrata strain 90030; for MIC, C. krusei 766-1: C. krusei strain 766-1; for MIC, C. krusei Q. C: C. krusei strain Q. C; for MIC, C. parapsilosis Q. C.: C. parapsilosis strain Q. C.; for MIC, Candida albicans 1.549: Candida albicans strain 1.549; for MIC, Candida albicans A 26: Candida albicans strain A 26; for MIC, Candida albicans Y-01-19: Candida albicans strain Y-01-19

Row | Structure (SMILES) | MIC, H. capsulatum [1] [µg/mL] | MIC, C. neoformans I [2] | MIC, C. neoformans M 106 [2] | MIC, A. fumigatus 1008 [3] | MIC, C. glabrata 90030 [4] | MIC, C. krusei 766-1 [4] | MIC, C. krusei Q. C [4] | MIC, C. parapsilosis Q. C. [4] | MIC, Candida albicans 1.549 [4] | MIC, Candida albicans A 26 [4] | MIC, Candida albicans Y-01-19 [4] | MIC, Candida tropicalis ATCC [4]
1 | Cc1ccc(N2CCN(c3ccc(-n4cnn([C@H](C)[C@@](O)(Cn5cncn5)c5ccc(F)cc5F)c4=O)cc3)CC2)cc1C [Compound 24, 2-{[1R2S/1S2R]-2-(2,4-Difluorophenyl)-2-hydroxy-1-methyl-3-(1H-1,2,4-triazol-1-yl)propyl}-4-{4-[4-(3,4-dimethylphenyl)-1-piperazinyl]phenyl}-3-(2H,4H)-1,2,4-triazolone] | 0.25 (≈ 0.416 µM) | 0.50 | 1.00 | >16 | 2.00 | >16 | 16.0 | 0.25 | 2.00 | <0.03 | 16.00 | <0.03
2 | COc1ccc(F)cc1N1CCN(c2ccc(-n3cnn(CC(O)(Cn4cncn4)c4ccc(F)cc4F)c3=O)cc2)CC1 (stereo not drawn) [Compound 59, 2-[2-(2,4-Difluorophenyl)-2-hydroxy-3-(1H-1,2,4-triazol-1-yl)propyl]-4-{4-[4-(2-methoxy-5-fluorophenyl)-1-piperazinyl]phenyl}-3-(2H,4H)-1,2,4-triazolone] | < 0.03 | <0.03 | 0.12 | >16 | 1.00 | 4.00 | 1.00 | <0.03 | 1.00 | <0.03 | 0.50 | <0.03
3 | C[C@@H](n1ncn(-c2ccc(N3CCN(c4ccc(Cl)c(Cl)c4)CC3)cc2)c1=O)[C@](O)(Cn1cncn1)c1ccc(F)cc1F [Compound 7, 2-{[1R2R/1S2S]-2-(2,4-Difluorophenyl)-2-hydroxy-1-methyl-3-(1H-1,2,4-triazol-1-yl)propyl}-4-{4-[4-(3,4-dichlorophenyl)-1-piperzinyl]phenyl}-3-(2H,4H)-1,2,4-triazolone] | 0.12 (≈ 0.187 µM) | <0.03 | <0.03 | 0.25 | 0.12 | 0.25 | 0.12 | <0.03 | 0.25 | <0.03 | 0.12 | <0.03
4 | Cc1nn([C@H](C)[C@@](O)(Cn2cncn2)c2ccc(F)cc2F)c(=O)n1-c1ccc(N2CCN(c3ccccc3F)CC2)cc1 [Compound 26, 2-{[1R2S/1S2R]-2-(2,4-Difluorophenyl)-2-hydroxy-1-methyl-3-(1H-1,2,4-triazol-1-yl)propyl}-4-{4-[4-(2-fluorophenyl)-1-piperazinyl]phenyl}-3-(2H,4H)-5-methyl-1,2,4-triazolone] | 0.12 (≈ 0.198 µM) | <0.03 | <0.03 | 8.00 | 1.00 | 2.00 | 0.50 | <0.03 | 0.25 | <0.03 | 1.00 | <0.03
5 | COc1ccc(F)cc1N1CCN(c2ccc(-n3c(C)nn([C@H](C)[C@@](O)(Cn4cncn4)c4ccc(F)cc4F)c3=O)cc2)CC1 [Compound 28, 2-{[1R2S/1S2R]-2-(2,4-Difluorophenyl)-2-hydroxy-1-methyl-3-(1H-1,2,4-triazol-1-yl)propyl}-4-{4-[4-(2-methoxy-5-fluorophenyl)-1-piperazinyl]phenyl}-3-(2H,4H)-5-methyl-1,2,4-triazolone] | 2 (≈ 3.15 µM) | 0.25 | 1.00 | >16 | 4.00 | >16 | 16.0 | 0.25 | 8.00 | <0.03 | 4.00 | <0.03
6 | Cc1nn([C@H](C)[C@@](O)(Cn2cncn2)c2ccc(F)cc2F)c(=O)n1-c1ccc(N2CCN(c3cc(Cl)cc(Cl)c3)CC2)cc1 [Compound 30, 2-{[1R2S/1S2R]-2-(2,4-Difluorophenyl)-2-hydroxy-1-methyl-3-(1H-1,2,4-triazol-1-yl)propyl}-4-{4-[4-(3,5-dichlorophenyl)-1-piperazinyl]phenyl}-3-(2H,4H)-5-methyl-1,2,4-triazolone] | 0.5 (≈ 0.763 µM) | 0.12 | 0.25 | >16 | 1.00 | 8.00 | 1.00 | 0.12 | 0.50 | <0.03 | 1.00 | <0.03
7 | Cc1ccc(N2CCN(c3ccc(-n4cnn([C@H](C)[C@](O)(Cn5cncn5)c5ccc(F)cc5F)c4=O)cc3)CC2)c(C)c1 [Compound 19, 2-{[1R2R/1S2S]-2-(2,4-Difluorophenyl)-2-hydroxy-1-methyl-3-(1H-1,2,4-triazol-1-yl)propyl}-4-{4-[4-(2,4-dimethylphenyl)-1-piperazinyl]phenyl}-3-(2H,4H)-1,2,4-triazolone] | 0.5 (≈ 0.832 µM) | <0.03 | <0.03 | >16 | >16 | >16 | 0.50 | 0.06 | 1.00 | <0.03 | 1.00 | <0.03
8 | COc1ccc(N2CCN(c3ccc(-n4cnn([C@H](C)[C@](O)(Cn5cncn5)c5ccc(F)cc5F)c4=O)cc3)CC2)cc1 [Compound 13, 2-{[1R2R/1S2S]-2-(2,4-Difluorophenyl)-2-hydroxy-1-methyl-3-(1H-1,2,4-triazol-1-yl)propyl}-4-{4-[4-(4-methoxyphenyl)-1-piperazinyl]phenyl}-3-(2H,4H)-1,2,4-triazolone] | 0.06 (≈ 0.0996 µM) | <0.03 | <0.03 | 0.25 | 0.50 | 0.50 | 0.12 | <0.03 | 0.12 | <0.03 | 0.25 | <0.03
9 | Cc1ccc(N2CCN(c3ccc(-n4cnn([C@H](C)[C@@](O)(Cn5cncn5)c5ccc(F)cc5F)c4=O)cc3)CC2)c(C)c1 [Compound 20, 2-{[1R2S/1S2R]-2-(2,4-Difluorophenyl)-2-hydroxy-1-methyl-3-(1H-1,2,4-triazol-1-yl)propyl}-4-{4-[4-(2,4-dimethylphenyl)-1-piperazinyl]phenyl}-3-(2H,4H)-1,2,4-triazolone] | 0.5 (≈ 0.832 µM) | 0.25 | 0.25 | >16 | 2.00 | >16 | 2.00 | 0.12 | 8.00 | <0.03 | 2.00 | <0.03
